{
  "source": "patent US20240246937A1",
  "about": "(MERCK SHARP & DOHME LLC, priority 2021, published 2024)",
  "data": [
    {"target": "recombinant IL4I1 (Homo sapiens (Human), UniProt Q96RQ9)", "sequence (Q96RQ9 22-567)": "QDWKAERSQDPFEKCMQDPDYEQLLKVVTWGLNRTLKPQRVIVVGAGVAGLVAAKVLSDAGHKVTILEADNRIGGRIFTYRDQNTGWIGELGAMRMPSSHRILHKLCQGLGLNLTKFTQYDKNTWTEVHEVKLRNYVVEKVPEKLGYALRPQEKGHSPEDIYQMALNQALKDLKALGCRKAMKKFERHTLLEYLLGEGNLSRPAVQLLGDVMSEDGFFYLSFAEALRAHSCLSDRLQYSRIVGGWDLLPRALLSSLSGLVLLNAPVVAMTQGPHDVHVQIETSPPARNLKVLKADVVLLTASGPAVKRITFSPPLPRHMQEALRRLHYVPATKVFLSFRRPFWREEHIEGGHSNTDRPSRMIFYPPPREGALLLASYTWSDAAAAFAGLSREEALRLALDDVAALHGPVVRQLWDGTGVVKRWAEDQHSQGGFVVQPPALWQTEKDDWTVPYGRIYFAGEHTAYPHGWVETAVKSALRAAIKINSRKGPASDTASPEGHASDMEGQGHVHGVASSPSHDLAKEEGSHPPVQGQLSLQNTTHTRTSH", "assay": "IL4I1 Enzymatic Assay (Amplex Red/HRP coupled fluorescence detection of H2O2)", "format": "biochemical", "details": "240 min; recombinant IL4I1, four-hour pre-incubation with compound", "in_short": "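Ten-point, 1:3 compound titrations were fitted by four-parameter sigmoidal regression to give EC50. Resorufin fluorescence (544/590 nm) from Amplex Red/HRP-coupled H2O2 detection was read 120 min after adding 1 mM each aromatic amino acid to 1 nM IL4I1, following a 4 h compound pre-incubation in pH 7.0 Hepes buffer.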", "units": {"EC50": "nM"}, "values": [
      {"molecule": "O=C1C(=O)N(C23CC(F)(C2)C3)CCN1Cc1ccc(-n2ccnn2)nc1", "note": "[Example 236, 1-((6-(1H-1,2,3-triazol-1-yl)pyridin-3-yl)methyl)-4-(3-fluorobicyclo[1.1.1]pentan-1-yl)piperazine-2,3-dione]", "EC50": 533},
      {"molecule": "O=C1C(=O)N(C23CC(F)(C2)C3)CCN1Cc1ccc(-n2cccn2)nc1", "note": "[Example 237, 1-((6-(1H-pyrazol-1-yl)pyridin-3-yl)methyl)-4-(3-fluorobicyclo[1.1.1]pentan-1-yl)piperazine-2,3-dione]", "EC50": 346},
      {"molecule": "O=c1c(=O)n(C2(CF)CC2)ccn1Cc1cc(-c2ccccn2)on1", "note": "[Example 238, 1-(1-(fluoromethyl)cyclopropyl)-4-((5-(pyridin-2-yl)isoxazol-3-yl)methyl)-1,4-dihydropyrazine-2,3-dione]", "EC50": 29},
      {"molecule": "O=c1c(=O)n(C2(CF)CC2)ccn1Cc1ccc(-c2ccccn2)nn1", "note": "[Example 239, 1-(1-(fluoromethyl)cyclopropyl)-4-((6-(pyridin-2-yl)pyridazin-3-yl)methyl)-1,4-dihydropyrazine-2,3-dione]", "EC50": 82},
      {"molecule": "O=C1C(=O)N(C23CC(F)(C2)C3)CCN1Cc1cc(-c2cccnc2)no1", "note": "[Example 240, 1-(3-fluorobicyclo[1.1.1]pentan-1-yl)-4-((3-(pyridin-3-yl)isoxazol-5-yl)methyl)piperazine-2,3-dione]", "EC50": 995},
      {"molecule": "O=C1C(=O)N(C23CC(F)(C2)C3)CCN1Cc1ccc(-c2cccnc2)nn1", "note": "[Example 241, 1-(3-fluorobicyclo[1.1.1]pentan-1-yl)-4-((6-(pyridin-3-yl)pyridazin-3-yl)methyl)piperazine-2,3-dione]", "EC50": 40},
      {"molecule": "O=c1c(=O)n(C2(CF)CC2)ccn1Cc1ccc(-c2ccccc2F)nn1", "note": "[Example 242, 1-(1-(fluoromethyl)cyclopropyl)-4-((6-(2-fluorophenyl)pyridazin-3-yl)methyl)-1,4-dihydropyrazine-2,3-dione]", "EC50": 32},
      {"molecule": "O=C1C(=O)N(C23CC(F)(C2)C3)CCN1Cc1ccc(-c2cncs2)nn1", "note": "[Example 243, 1-(3-fluorobicyclo[1.1.1]pentan-1-yl)-4-((6-(thiazol-5-yl)pyridazin-3-yl)methyl)piperazine-2,3-dione]", "EC50": 30},
      {"molecule": "O=C1C(=O)N(C23CC(F)(C2)C3)CCN1Cc1ccc(-n2nccn2)cn1", "note": "[Example 244, 1-((5-(2H-1,2,3-triazol-2-yl)pyridin-2-yl)methyl)-4-(3-fluorobicyclo[1.1.1]pentan-1-yl)piperazine-2,3-dione]", "EC50": 45},
      {"molecule": "O=c1c(=O)n(C2(CF)CC2)ccn1Cc1ccc(-c2cncs2)nn1", "note": "[Example 245, 1-(1-(fluoromethyl)cyclopropyl)-4-((6-(thiazol-5-yl)pyridazin-3-yl)methyl)-1,4-dihydropyrazine-2,3-dione]", "EC50": 43},
      {"molecule": "O=c1c(=O)n(C2(CF)CC2)ccn1Cc1cc(-c2cccnc2)no1", "note": "[Example 246, 1-(1-(fluoromethyl)cyclopropyl)-4-((3-(pyridin-3-yl)isoxazol-5-yl)methyl)-1,4-dihydropyrazine-2,3-dione]", "EC50": 37},
      {"molecule": "O=c1c(=O)n(C2(CF)CC2)ccn1Cc1ccc(-n2ccnn2)nn1", "note": "[Example 247, 1-((6-(1H-1,2,3-triazol-1-yl)pyridazin-3-yl)methyl)-4-(1-(fluoromethyl)cyclopropyl)-1,4-dihydropyrazine-2,3-dione]", "EC50": 44},
      {"molecule": "O=c1c(=O)n(C23CC(F)(C2)C3)ccn1Cc1ccc(-n2ccnn2)nn1", "note": "[Example 248, 1-((6-(1H-1,2,3-triazol-1-yl)pyridazin-3-yl)methyl)-4-(3-fluorobicyclo[1.1.1]pentan-1-yl)-1,4-dihydropyrazine-2,3-dione]", "EC50": 38},
      {"molecule": "O=C1C(=O)N(C23CC(F)(C2)C3)CCN1Cc1ccc(-n2ccnn2)nn1", "note": "[Example 249, 1-((6-(1H-1,2,3-triazol-1-yl)pyridazin-3-yl)methyl)-4-(3-fluorobicyclo[1.1.1]pentan-1-yl)piperazine-2,3-dione]", "EC50": 148},
      {"molecule": "O=C1C(=O)N(C23CC(F)(C2)C3)CCN1Cc1ccc(-n2cccn2)cn1", "note": "[Example 250, 1-((5-(1H-pyrazol-1-yl)pyridin-2-yl)methyl)-4-(3-fluorobicyclo[1.1.1]pentan-1-yl)piperazine-2,3-dione]", "EC50": 240},
      {"molecule": "O=c1c(=O)n(C2(CF)CC2)ccn1Cc1ccc(-c2ccccn2)cn1", "note": "[Example 251, 1-([2,3′-bipyridin]-6′-ylmethyl)-4-(1-(fluoromethyl)cyclopropyl)-1,4-dihydropyrazine-2,3-dione]", "EC50": 100},
      {"molecule": "O=C1C(=O)N(C23CC(F)(C2)C3)CCN1Cc1cc(-c2ccccn2)on1", "note": "[Example 252, 1-(3-fluorobicyclo[1.1.1]pentan-1-yl)-4-((5-(pyridin-2-yl)isoxazol-3-yl)methyl)piperazine-2,3-dione]", "EC50": 38},
      {"molecule": "O=c1c(=O)n(C2(CF)CC2)ccn1Cc1cc(-c2cccnc2)on1", "note": "[Example 253, 1-(1-(fluoromethyl)cyclopropyl)-4-((5-(pyridin-3-yl)isoxazol-3-yl)methyl)-1,4-dihydropyrazine-2,3-dione]", "EC50": 45},
      {"molecule": "O=C1C(=O)N(C23CC(F)(C2)C3)CCN1Cc1ccc(-c2ccccn2)cn1", "note": "[Example 254, 1-([2,3′-bipyridin]-6′-ylmethyl)-4-(3-fluorobicyclo[1.1.1]pentan-1-yl)piperazine-2,3-dione]", "EC50": 93},
      {"molecule": "O=c1c(=O)n(C23CC(F)(C2)C3)ccn1Cc1ccc(-n2nccn2)nc1", "note": "[Example 255, 1-((6-(2H-1,2,3-triazol-2-yl)pyridin-3-yl)methyl)-4-(3-fluorobicyclo[1.1.1]pentan-1-yl)-1,4-dihydropyrazine-2,3-dione]", "EC50": 47},
      {"molecule": "O=C1C(=O)N(C23CC(F)(C2)C3)CCN1Cc1cc(-c2cccnc2)on1", "note": "[Example 256, 1-(3-fluorobicyclo[1.1.1]pentan-1-yl)-4-((5-(pyridin-3-yl)isoxazol-3-yl)methyl)piperazine-2,3-dione]", "EC50": 533},
      {"molecule": "O=c1c(=O)n(C2(CF)CC2)ccn1Cc1cn(-c2ccccn2)nn1", "note": "[Example 257, 1-(1-(fluoromethyl)cyclopropyl)-4-((1-(pyridin-2-yl)-1H-1,2,3-triazol-4-yl)methyl)-1,4-dihydropyrazine-2,3-dione]", "EC50": 68},
      {"molecule": "N#CC1(n2ccn(Cc3cn(-c4ccccn4)nn3)c(=O)c2=O)CC1", "note": "[Example 258, 1-(2,3-dioxo-4-((1-(pyridin-2-yl)-1H-1,2,3-triazol-4-yl)methyl)-3,4-dihydropyrazin-1(2H)-yl)cyclopropane-1-carbonitrile]", "EC50": 78},
      {"molecule": "O=C1C(=O)N(C23CC(F)(C2)C3)CCN1Cc1cn(-c2ccccn2)nn1", "note": "[Example 259, 1-(3-fluorobicyclo[1.1.1]pentan-1-yl)-4-((1-(pyridin-2-yl)-1H-1,2,3-triazol-4-yl)methyl)piperazine-2,3-dione]", "EC50": 78},
      {"molecule": "O=c1c(=O)n(C23CC(F)(C2)C3)ccn1Cc1cn(-c2ccccn2)nn1", "note": "[Example 260, 1-(3-fluorobicyclo[1.1.1]pentan-1-yl)-4-((1-(pyridin-2-yl)-1H-1,2,3-triazol-4-yl)methyl)-1,4-dihydropyrazine-2,3-dione]", "EC50": 38},
      {"molecule": "O=c1c(=O)n(C2(CF)CC2)ccn1Cc1ccc(-n2ccnn2)cn1", "note": "[Example 261, 1-((5-(1H-1,2,3-triazol-1-yl)pyridin-2-yl)methyl)-4-(1-(fluoromethyl)cyclopropyl)-1,4-dihydropyrazine-2,3-dione]", "EC50": 178}
    ]}
  ]
}
